Results reported in patent publication US20050124021A1 (priority 2000, published 2005).

Legend:
[1] = molecular target: T1, Rv1170 (Mycobacterium tuberculosis, UniProt P9WJN3); format: biochemical, M. tuberculosis
[2] = tested on: M. smegmatis strain 49::H37Rv A18
[3] = molecular target: T1, Rv1170; format: biochemical, M. tuberculosis; remark: listed apart in the source

T1 sequence (P9WJN3 whole entry, looked up): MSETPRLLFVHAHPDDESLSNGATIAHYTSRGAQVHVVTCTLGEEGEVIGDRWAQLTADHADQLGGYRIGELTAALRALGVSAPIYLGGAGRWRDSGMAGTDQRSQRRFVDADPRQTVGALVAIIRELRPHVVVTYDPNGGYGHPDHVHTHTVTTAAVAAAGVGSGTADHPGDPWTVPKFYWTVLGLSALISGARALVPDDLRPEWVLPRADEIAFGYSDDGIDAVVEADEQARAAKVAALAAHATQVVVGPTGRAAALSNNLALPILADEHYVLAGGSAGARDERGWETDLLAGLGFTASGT

With `CC(=O)N[C@H]1C(O)O[C@H](CO)[C@@H](O)[C@@H]1O` (stereo partly drawn) [GlcNAc, N-acetylglucosamine] as the compound, how does the “Activity, deacetylase reaction (analysis for amine / deacetylase product)” value [1] read?
Its value is 0.087 ± 0.005 nmol min^−1 mg of protein^−1.

And the “Decrease in reactivity versus GlcNAc-Ins (removal of inositol residue)” value [1]?
The value was “more than 300 fold”.

How did the “Reduction of the peroxide sensitivity of mutant 49” value [2] turn out when `OO` [H2O2, hydrogen peroxide] was run?
The value was “by a factor of two”.

With `CC(=O)N[C@@H](CS)C(=O)N[C@H]1[C@@H](OC2[C@H](O)[C@H](O)C(O)[C@H](O)[C@H]2O)O[C@H](CO)[C@@H](O)[C@@H]1O` (stereo partly drawn) [MSH, 1-D-myo-inosityl-2-(N-acetylcysteinyl)amido-2-deoxy-α-D-glucopyranoside] as the compound, how does the “Activity, deacetylase reaction (analysis for amine / deacetylase product)” value [1] read?
The value was <10^−4 nmol min^−1 mg of protein^−1.

And the “Deacetylated by the invention deacetylase” value [1]?
The value was “neither MSH nor MSmB is deacetylated”.

What about the “Activity, amidase cleavage (analysis for AcCySmB or AcCys)” value [3] of the same compound?
The value was 0.002 ± 0.001 nmol min^−1 mg of protein^−1.
